The assay in a line: Tested for the NMDA antagonist activity using a functional assay, by protection of cultured hippocampus neurons from the toxic effects of extracellularly applied glutamate.

Structures are written as SMILES.

In the case of `C[C@@H]([C@@H](O)c1ccc2c(c1)CC(=O)N2)N1CCC(Cc2ccccc2)CC1` [5-[(1S,2S)-2-(4-Benzyl-piperidin-1-yl)-1-hydroxy-propyl]-1,3-dihydro-indol-2-one], the IC50 (commonly the midpoint of a concentration-inhibition curve) worked out at 111 nM. This counts as sub-micromolar.
The value for `C[C@@H]([C@@H](O)c1ccc2c(c1)CC(=O)N2)N1CCC(c2ccccc2)CC1` [5-[(1S,2S)-1-Hydroxy-2-(4-phenyl-piperidin-1-yl)-propyl]-1,3-dihydro-indol-2-one] was 40 nM; that for `OC(CN1CCC(Cc2ccc(F)cc2)CC1)c1ccc(Cl)cc1` (stereo not given) was 1000 nM; that for `C[C@@H]([C@H](O)c1ccc2c(c1)CC(=O)N2)N1CCC(Cc2ccccc2)CC1` [5-[(1R,2S)-2-(4-Benzyl-piperidin-1-yl)-1-hydroxy-propyl]-1,3-dihydro-indol-2-one] was 231 nM.
Regarding `O=C1Cc2cc(C(O)CN3CCC(Cc4ccc(F)cc4)CC3)ccc2N1` (stereo not given) [5-{2-[4-(4-Fluoro-benzyl)-piperidin-1-yl]-1-hydroxy-ethyl}-1,3-dihydro-indol-2-one], the IC50 came to 600 nM.
